Measurements published in US5888993A, “Vanadium compounds in the treatment of elevated blood sugar levels” (The University of British Columbia, priority 1997, dated 1999).
Several values for one entry are separate records, joined by “and”; a condition that tells them apart may be missing. Identical values can stand only once.

What was measured:
diabetic rats [1] = experiment: Glucose time course after gavage of ammonium bis(maltolato)dioxovanadate in STZ diabetic rats; type: in vivo, male Wistar rats; conditions: 0.55 mmoles/kg gavage
Procedure: Six male Wistar rats, weighing 175-200 gm, were made diabetic by the intravenous injection of 60 mg/kg of streptozotocin dissolved in 0.9% saline via the tail vein. Seven days after the injection the rats were diabetic having an average glucose concentration of 24.20 mM. 0.55 mmoles/kg of the ammonium salt of bis(maltolato)dioxovanadate suspended in 3% acacia was gavaged into the rats. Blood was collected and analyzed for glucose as a function of time.

Na^+ -K^+ ATPase = conditions: cited from earlier work
diabetic rats [2] = experiment: Comparative testing, plasma glucose after oral gavage in STZ diabetic rats; type: in vivo, male wistar rats; conditions: oral gavage 1 mmol/kg
Procedure: Diabetes was induced in all animals by a single intravenous injection of streptozotocin (STZ) 60 mg/kg in 0.9% NaCl via the tail vein. Three days after STZ injection, blood was collected from the tail by nicking the tail tip and expressing the blood into heparinized capillary tubes. Blood was centrifuged at 20,000 g for 10 minutes to separate the plasma. Glucose analysis was done immediately on the plasma sample using a Boehringer Mannheim kit. […] One week after STZ injection animals were randomly divided into 3 pairs of rats. Each pair of rats received by oral gavage 1 mmol/kg of BMOV or VO(Sal)2 or VO(acac)2, suspended in 3% acacia.

[3] = system: rats made diabetic with streptozoticin (STZ); conditions: oral / drinking water; cited from earlier work
[4] = in vivo; cited from earlier work
[5] = in vivo; cited from earlier work; remark: listed apart in the source
red blood cells = conditions: cytoplasm; cited from earlier work
[6] = cited from earlier work
rat adipocytes = conditions: in vitro; cited from earlier work
[7] = log p (partition coefficient); type: physicochemical
diabetic rats [8] = experiment: Comparison of BMOV and vanadyl kojate, acute time course of plasma glucose, rats made diabetic with STZ; type: in vivo, rat; design: plasma glucose level: unit not given here
Procedure: Using BMOV and Vanadyl Kojate as prepared in Examples 1 and 2 above, the relative efficacy of the two compounds was assessed using rats made diabetic with STZ. Again the animals were divided into responder and non-responder groups. For a 0.063 mmol V/kg ip injection, BMOV gave a 50:50 split between responder and non-responder groups whereas for vanadyl kojate the ratio was 60:40. On oral gavage of 0.55 mmol V/kg the responder:non-responder ratios were 50:50 and 57:43 respectively (n=10). However over a 12 day test period, there was a 100% response in terms of blood glucose reduction for diabetic rats receiving vanadyl kojate orally.

[9] = system: spontaneously hypertensive rats (SHR); experiment: Blood pressure reduction by vanadyl sulphate, spontaneously hypertensive rats; type: in vivo, rat; conditions: for systolic blood pressure / hypertension, prevention: 75-125 mg/kg/day in drinking water
Procedure: (§1) The insulin resistant spontaneously hypertensive rat was used as the experiment model and the vanadyl form of vanadium as the experimental intervention. […] Rats, procured at 4 weeks of age, were divided
(§2) into 4 groups: SHR (untreated), SHRV (treated), WKY (untreated), WKYV (treated). Chronic vanadyl sulfate treatment (0.75 mg/ml ad libitum in the drinking water) was started on the SHRV and WKYV groups at 5 weeks of age. After week 8, when hypertension becomes fully manifest in the SHR, weekly measurements of plasma insulin and systolic blood pressure (tail cuff method) were done on all four groups.
(§3) At week 11, the untreated control SHR and WKY groups from the prevention study were further subdivided and half the animals in each group were started on oral vanadyl sulfate treatment. This was done to observe the reversal effects of vanadyl, if any, after the SHR had become hypertensive. […] A direct blood pressure reading done in all groups at termination validated the earlier indirect measurements. Vanadyl sulfate prevented as well as reversed hypertention in the hyperinsulinemic spontaneously hypertensive rat, a model that closely resembles human essential hypertension. Besides establishing further the role that insulin resistance/hyperinsulinemia may play in the development of high blood pressure, this study also indicated a possible therapeutic role for vanadyl sulfate in hypertensive, hyperinsulinemic subjects.

Wistar Kyoto (WKY) rats = experiment: Blood pressure study with vanadyl sulphate, normotensive Wistar Kyoto rats; type: in vivo, rat; conditions: for changes in normotensive animals, prevention: WKYV; for effect in Wistar Kyoto rats, reversal: WKYV1, treatment from week 11
Procedure: as §1, §2, §3

STZ-diabetic rats = experiment: Comparison of BMOV and ETHYLBMOV, plasma glucose and insulin in STZ-diabetic rats; type: in vivo, rat; conditions: 0.6 mmol kg^-1, one oral gavage, 24 hour period
Procedure: Animal studies were conducted in STZ-diabetic rats comparing doses of 0.6 mmol kg^-1 for VO(ma)2 (BMOV) and VO(ema)2 (ETHYLVMOV). FIGS. 8 and 9 respectively show plasma glucose and plasma insulin values recorded over 24 hour periods after one oral gavage of a water solution of either BMOV or ETHYLBMOV, in order to compare their efficacies.

[10] = 0 h, individual rats (two per drug)
[11] = SHRV, 75-125 mg/kg/day, weeks 8-12

Compound: Cc1occc(=O)c1[O-].Cc1occc(=O)c1[O-].[NH4+].[O]=[V+]=[O] [Ammonium bis(maltolato)dioxovanadate]
- reduction of elevated glucose levels, in words (diabetic rats [1]): effective in reducing the elevated glucose levels
- Glucose (diabetic rats [1]; 0 h): 24.2 mM
- Glucose (diabetic rats [1]; 1 h): 24.4 mM
- Glucose (diabetic rats [1]; 2 h): 25.5 mM
- Glucose (diabetic rats [1]; 4 h): 24.7 mM
- Glucose (diabetic rats [1]; 8 h): 22.3 mM
- Glucose (diabetic rats [1]; 12 h): 20.1 mM
- Glucose (diabetic rats [1]; 24 h): 14.9 mM

Compound: [Na+].[Na+].[Na+].[O]=[V]([O-])([O-])[O-] [Sodium orthovanadate]
- inhibition of Na^+ -K^+ ATPase (Na^+ -K^+ ATPase): potent inhibitor

Compound: O=Cc1ccccc1[O-].O=Cc1ccccc1[O-].[O]=[V+2] [VO(Sal)2, Bis(salicylaldehyde)oxovanadium(IV)]
- plasma glucose level (diabetic rats [2]; [10]): 21.09 mM and 21.12 mM
- plasma glucose level (diabetic rats [2]; 2 h, individual rats): 22.77 mM and 22.31 mM
- plasma glucose level (diabetic rats [2]; 4 h, individual rats): 20.18 mM and 21.74 mM
- plasma glucose level (diabetic rats [2]; 6 h, individual rats): 20.67 mM and 21.85 mM
- plasma glucose level (diabetic rats [2]; 8 h, individual rats): 21.57 mM and 21.59 mM
- plasma glucose level (diabetic rats [2]; 12 h, individual rats): 19.24 mM and 19.74 mM
- plasma glucose level (diabetic rats [2]; 24 h, individual rats): 18.73 mM and 18.64 mM

Compound: CC(=O)/C=C(/C)[O-].CC(=O)/C=C(/C)[O-].[O]=[V+2] [VO(acac)2, Bis(acetylacetonate)oxovanadium(IV)]
- plasma glucose level (diabetic rats [2]; [10]): 23.87 mM and 22.74 mM
- plasma glucose level (diabetic rats [2]; 2 h, individual rats): 22.91 mM and 24.5 mM
- plasma glucose level (diabetic rats [2]; 4 h, individual rats): 22.37 mM and 22.89 mM
- plasma glucose level (diabetic rats [2]; 6 h, individual rats): 23.96 mM and 22.94 mM
- plasma glucose level (diabetic rats [2]; 8 h, individual rats): 27.19 mM and 23.65 mM
- plasma glucose level (diabetic rats [2]; 12 h, individual rats): 19.13 mM and 18.86 mM
- plasma glucose level (diabetic rats [2]; 24 h, individual rats): 2.43 mM
- death (diabetic rats [2]; 24 h, rat 5): dead

Compound: [O]=[V]([O-])([O-])[O-] [vanadate]
- blood glucose [3]: decreased the elevated blood glucose
- cardiac performance / secondary complications of diabetes [3]: prevented the depression of cardiac performance
- absorption from the gastrointestinal tract [4]: poorly absorbed
- toxicity [5]: toxic
- reduction of vanadate in red blood cells (red blood cells): reduced to vanadium (IV)
- in vivo reduction [6]: reduced in vivo to vanadyl

Compound: [O]=[V+2] [vanadyl ion]
- insulin-like stimulation of glucose oxidation (rat adipocytes): insulin-like stimulation of glucose oxidation

Compound: [O]=[V-2]12([O]C3=COC(CO)=CC3=[O+]1)[O]C1=COC(CO)=CC1=[O+]2 [vanadyl kojate, Bis(kojato)oxovanadium(IV)]
- log p [7]: 0.012
- plasma glucose level (diabetic rats [8]; i.p. 0.063 mmol/kg, nonresponders (DTN), 0 h): 20.86
- plasma glucose level (diabetic rats [8]; i.p. 0.063 mmol/kg, nonresponders (DTN), 1 h): 18.55
- plasma glucose level (diabetic rats [8]; i.p. 0.063 mmol/kg, nonresponders (DTN), 2 h): 16.62
- plasma glucose level (diabetic rats [8]; i.p. 0.063 mmol/kg, nonresponders (DTN), 4 h): 17.37
- plasma glucose level (diabetic rats [8]; i.p. 0.063 mmol/kg, nonresponders (DTN), 6 h): 16.62
- plasma glucose level (diabetic rats [8]; i.p. 0.063 mmol/kg, nonresponders (DTN), 8 h): 15.49
- plasma glucose level (diabetic rats [8]; i.p. 0.063 mmol/kg, nonresponders (DTN), 12 h): 18.24
- plasma glucose level (diabetic rats [8]; i.p. 0.063 mmol/kg, nonresponders (DTN), 24 h): 18.77
- plasma glucose level (diabetic rats [8]; i.p. 0.063 mmol/kg, responders (DTR), 0 h): 17.94
- plasma glucose level (diabetic rats [8]; i.p. 0.063 mmol/kg, responders (DTR), 1 h): 14.75
- plasma glucose level (diabetic rats [8]; i.p. 0.063 mmol/kg, responders (DTR), 2 h): 10.17
- plasma glucose level (diabetic rats [8]; i.p. 0.063 mmol/kg, responders (DTR), 4 h): 9.26
- plasma glucose level (diabetic rats [8]; i.p. 0.063 mmol/kg, responders (DTR), 6 h): 8.73
- plasma glucose level (diabetic rats [8]; i.p. 0.063 mmol/kg, responders (DTR), 8 h): 7.4
- plasma glucose level (diabetic rats [8]; i.p. 0.063 mmol/kg, responders (DTR), 12 h): 10.37
- plasma glucose level (diabetic rats [8]; i.p. 0.063 mmol/kg, responders (DTR), 24 h): 13.28
- plasma glucose level (diabetic rats [8]; oral gavage 0.55 mmol/kg, nonresponders (DTN), 0 h): 23.08
- plasma glucose level (diabetic rats [8]; oral gavage 0.55 mmol/kg, nonresponders (DTN), 1 h): 21.18
- plasma glucose level (diabetic rats [8]; oral gavage 0.55 mmol/kg, nonresponders (DTN), 2 h): 21.51
- plasma glucose level (diabetic rats [8]; oral gavage 0.55 mmol/kg, nonresponders (DTN), 4 h): 20.57
- plasma glucose level (diabetic rats [8]; oral gavage 0.55 mmol/kg, nonresponders (DTN), 6 h): 18.2
- plasma glucose level (diabetic rats [8]; oral gavage 0.55 mmol/kg, nonresponders (DTN), 8 h): 19.06
- plasma glucose level (diabetic rats [8]; oral gavage 0.55 mmol/kg, nonresponders (DTN), 12 h): 18.81
- plasma glucose level (diabetic rats [8]; oral gavage 0.55 mmol/kg, nonresponders (DTN), 24 h): 25.0
- plasma glucose level (diabetic rats [8]; oral gavage 0.55 mmol/kg, responders (DTR), 0 h): 15.75
- plasma glucose level (diabetic rats [8]; oral gavage 0.55 mmol/kg, responders (DTR), 1 h): 12.5
- plasma glucose level (diabetic rats [8]; oral gavage 0.55 mmol/kg, responders (DTR), 2 h): 10.1
- plasma glucose level (diabetic rats [8]; oral gavage 0.55 mmol/kg, responders (DTR), 4 h): 7.96
- plasma glucose level (diabetic rats [8]; oral gavage 0.55 mmol/kg, responders (DTR), 6 h): 6.6
- plasma glucose level (diabetic rats [8]; oral gavage 0.55 mmol/kg, responders (DTR), 8 h): 6.87
- plasma glucose level (diabetic rats [8]; oral gavage 0.55 mmol/kg, responders (DTR), 12 h): 6.01
- plasma glucose level (diabetic rats [8]; oral gavage 0.55 mmol/kg, responders (DTR), 24 h): 6.74
- food and fluid demand (diabetic rats [8]; oral, 12 day test period): significantly reduced
- response in terms of blood glucose reduction (diabetic rats [8]; oral, 12 day test period): 100%

Compound: O=S(=O)([O-])[O-].[O]=[V+2] [vanadyl sulfate]
- hypertension / blood pressure, reversal ([9]; SHRV1, treatment from week 11): reversed hypertension
- plasma insulin, reversal ([9]; SHRV1, treatment from week 11): lowering their plasma insulin to control values
- hypertension / blood pressure, reversal ([9]; SHRV1, treatment from week 11, listed as vanadyl): reduce the blood pressure
- systolic blood pressure / hypertension, prevention ([9]; SHRV, weeks 8-12): lowered both plasma insulin and systolic blood pressure
- systolic blood pressure / hypertension, prevention ([9]; SHRV, weeks 8-12, listed as vanadyl): prevents the onset of hypertension
- plasma glucose levels [9, 11]: without causing any change in the plasma glucose levels
- plasma insulin, prevention [9, 11]: lowered both plasma insulin and systolic blood pressure
- gastrointestinal, renal or hepatic toxicity ([9]; treated animals, 75-125 mg/kg/day, entire experimental period): No gastrointestinal, renal or hepatic toxicity
- changes in normotensive animals, prevention (Wistar Kyoto (WKY) rats): No changes were seen
- effect in Wistar Kyoto rats, reversal (Wistar Kyoto (WKY) rats): no effect
- effect in Wistar Kyoto rats, reversal (Wistar Kyoto (WKY) rats; listed as vanadyl): no effect is observed
- changes in normotensive animals, prevention (Wistar Kyoto (WKY) rats; listed as vanadyl): No change is observed
- adverse effect on normal animals (hypotension) (Wistar Kyoto (WKY) rats; normal animals): no adverse effect on normal animals
- blood glucose [3]: lowers blood glucose and blood lipids
- cardiac performance / secondary complications of diabetes [3]: prevents secondary complications of diabetes such as cataracts and cardiac dysfunction
- absorption from the gastrointestinal tract [4]: poorly absorbed
- toxicity [5]: less toxic than the vanadate form of vanadium

Compound: Bis(ethylmaltolato)oxovanadium(IV) [ETHYLBMOV]
- plasma glucose, difference BMOV vs ETHYLBMOV (STZ-diabetic rats): statistically insignificant
- plasma insulin, difference BMOV vs ETHYLBMOV (STZ-diabetic rats): statistically insignificant
